The source of these data is patent US20240025922A1, “TETRAHYDROPYRIDO[3,4-d]PYRIMIDINES AS HPK1 INHIBITORS” (Merck Patent GmbH, priority 2022, published 2024).

The target of test [1] is full-length human HPK1 (MAP4K1) (Homo sapiens (Human), UniProt Q92918). Put plainly: HPK1 Kinase Assay (Biochemical Assay), ADP-Glo. As to conditions: GST-HPK1 3.2 nM, 10 μM ATP, MBP substrate, read-out: HPK1 enzymatic IC50. In a few lines:
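ADP-Glo luminescence after a 120-min kinase reaction gave percent inhibition and IC50. The enzyme was Sf21-expressed N-terminal GST full-length human HPK1 at 3.2 nM in HEPES pH 7.5 buffer with MgCl2, DTT, Brij-35 and BSA.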

Test [2] has as its target HPK1 (SLP76 phosphorylation at Ser376 in Jurkat and EL-4 cells) (Homo sapiens, UniProt Q92918). It counts as cell-based. The gist of the method:
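Phospho-SLP76 (Ser376) in lysates measured by AlphaLISA for human Jurkat and by 19 h HTRF for mouse EL-4, giving % inhibition and IC50. Compounds applied 60 min before αCD3/αCD28 bead stimulation at 37 °C, lasting 15 min (Jurkat) or 30 min (EL-4).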

Setting [3] is: αCD3/αCD28 Dynabeads stimulated cells, pSLP76 (Ser376) detection; read-out: HPK1 pSLP76 IC50.

Read-outs that look alike come from different tables or passages of the source.

Chain of HPK1 (SLP76 phosphorylation at Ser376 in Jurkat and EL-4 cells) (Q92918 whole entry, looked up): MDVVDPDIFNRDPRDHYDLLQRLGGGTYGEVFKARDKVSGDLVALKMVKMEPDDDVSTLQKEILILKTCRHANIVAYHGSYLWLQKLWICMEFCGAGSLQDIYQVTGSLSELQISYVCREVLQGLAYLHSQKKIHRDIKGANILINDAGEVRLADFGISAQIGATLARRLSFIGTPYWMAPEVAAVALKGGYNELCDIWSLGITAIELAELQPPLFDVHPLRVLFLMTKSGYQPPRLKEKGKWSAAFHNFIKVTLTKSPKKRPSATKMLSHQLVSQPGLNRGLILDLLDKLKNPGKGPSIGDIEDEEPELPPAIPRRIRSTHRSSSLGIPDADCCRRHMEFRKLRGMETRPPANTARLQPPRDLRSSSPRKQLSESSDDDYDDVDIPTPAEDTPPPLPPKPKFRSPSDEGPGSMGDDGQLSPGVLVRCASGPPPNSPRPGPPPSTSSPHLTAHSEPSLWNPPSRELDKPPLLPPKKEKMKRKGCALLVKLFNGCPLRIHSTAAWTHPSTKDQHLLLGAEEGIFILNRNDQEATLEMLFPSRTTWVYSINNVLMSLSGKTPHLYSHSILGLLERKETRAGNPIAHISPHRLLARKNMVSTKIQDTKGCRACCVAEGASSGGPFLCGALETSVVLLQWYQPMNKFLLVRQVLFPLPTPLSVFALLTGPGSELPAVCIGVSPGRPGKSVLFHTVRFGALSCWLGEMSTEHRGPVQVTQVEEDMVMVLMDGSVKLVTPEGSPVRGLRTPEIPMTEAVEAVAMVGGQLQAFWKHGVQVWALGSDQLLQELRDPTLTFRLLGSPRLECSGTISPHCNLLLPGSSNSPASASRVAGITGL
Chain of full-length human HPK1 (MAP4K1) (Q92918 whole entry): as the sequence (Q92918 whole entry, looked up) above

Turning to `Cc1c(N2CCc3cnc(Nc4ccc(NCCN(C)C)c(F)c4)cc3C2)cnc2c1NCCO2` [Example 124, N1-(2-(dimethylamino)ethyl)-2-fluoro-N4-(6-(8-methyl-2,3-dihydro-1H-pyrido[2,3-b][1,4]oxazin-7-yl)-5,6,7,8-tetrahydro-2,6-naphthyridin-3-yl)benzene-1,4-diamine], the figures for the IC50 in test [1] and in test [2] (setting [3]) were below 100 nM and 500 to 1000 nM, respectively.
As to `Cc1c(N2CCc3cnc(Nc4ccc([C@@H](C)S(C)(=O)=O)cc4)nc3C2)cnc2c1NCCO2` (single isomer, unassigned) [Example 158], the IC50 in test [1] is below 100 nM; in test [2] (setting [3]), below 500 nM.
As to `Cc1c(N2CCc3cnc(Nc4cccc(CN5CCOCC5)c4)nc3C2)cnc2c1NCCO2` [Example 60, 7-{8-methyl-1H,2H,3H-pyrido[2,3-b][1,4]oxazin-7-yl}-N-{3-[(morpholin-4-yl)methyl]phenyl}-5H,6H,7H,8H-pyrido[3,4-d]pyrimidin-2-amine], the half-maximal inhibitory concentration (IC50) in test [1] was below 100 nM; in test [2] (read-out: HPK1 pSLP76 IC50; αCD3/αCD28 Dynabeads stimulated cells, pSLP76 (Ser376) detection) it was 500 to 1000 nM.
Regarding `CNCc1cccc(Nc2ncc3c(n2)CN(c2cnc4c(c2C)NCCO4)CC3)c1` [Example 46, 7-{8-methyl-1H,2H,3H-pyrido[2,3-b][1,4]oxazin-7-yl}-N-{3-[(methylamino)methyl]phenyl}-5H,6H,7H,8H-pyrido[3,4-d]pyrimidin-2-amine], the IC50 in test [1] is below 100 nM; in test [2] (setting [3]), 500 to 1000 nM.
Regarding `CCc1c(N2CCc3cnc(Nc4ccc(CS(C)(=O)=O)cc4)nc3C2)cnc2c1NCCO2` [Example 145, 7-{8-ethyl-1H,2H,3H-pyrido[2,3-b][1,4]oxazin-7-yl}-N-[4-(methanesulfonylmethyl)phenyl]-5H,6H,7H,8H-pyrido[3,4-d]pyrimidin-2-amine], the figures for the IC50 in test [1] and in test [2] (setting [3]) were below 100 nM and below 500 nM, respectively.
As for `Cc1c(N2CCc3cnc(Nc4ccc(C5CCN(C)CC5)c(CC#N)c4)nc3C2)cnc2c1NCCO2` [Example 112, 2-(5-((7-(8-methyl-2,3-dihydro-1H-pyrido[2,3-b][1,4]oxazin-7-yl)-5,6,7,8-tetrahydropyrido[3,4-d]pyrimidin-2-yl)amino)-2-(1-methylpiperidin-4-yl)phenyl)acetonitrile], the results for the IC50 in test [1] and in test [2] (setting [3]) were below 100 nM and 500 to 1000 nM, respectively.
The like results for `Cc1c(N2CCc3cnc(Nc4ccc(CC(=O)N5CC(F)(F)C5)cc4)nc3C2)cnc2c1NCCO2` [Example 151, 1-(3,3-difluoroazetidin-1-yl)-2-{4-[(7-{8-methyl-1H,2H,3H-pyrido[2,3-b][1,4]oxazin-7-yl}-5H,6H,7H,8H-pyrido[3,4-d]pyrimidin-2-yl)amino]phenyl}ethan-1-one] were, in that order, below 100 nM and below 500 nM.
Take `Cc1c(N2CCc3cnc(Nc4ccc(NCCN5CCOCC5)c(F)c4)nc3C2)cnc2c1NCCO2` [Example 6, 2-fluoro-N4-(7-{8-methyl-1H,2H,3H-pyrido[2,3-b][1,4]oxazin-7-yl}-5H,6H,7H,8H-pyrido[3,4-d]pyrimidin-2-yl)-N1-[2-(morpholin-4-yl)ethyl]benzene-1,4-diamine]: the IC50 was below 100 nM in test [1] and below 500 nM in test [2] (setting [3]).
Consider `Cc1c(N2CCc3cnc(Nc4ccc5c(c4)CCOC5)nc3C2)cnc2c1NCCO2` [Example 84, N-(isochroman-6-yl)-7-(8-methyl-2,3-dihydro-1H-pyrido[2,3-b][1,4]oxazin-7-yl)-5,6,7,8-tetrahydropyrido[3,4-d]pyrimidin-2-amine], for which the IC50 in test [1] was below 100 nM; in test [2] (setting [3]) it was below 500 nM.
Regarding `Cc1c(N2CCc3cnc(Nc4ccc(Cn5ccnn5)cc4)nc3C2)cnc2c1NCCO2` [Example 183, 7-{8-methyl-1H,2H,3H-pyrido[2,3-b][1,4]oxazin-7-yl}-N-{4-[(1H-1,2,3-triazol-1-yl)methyl]phenyl}-5H,6H,7H,8H-pyrido[3,4-d]pyrimidin-2-amine], the IC50 was below 100 nM in test [1] and below 500 nM in test [2] (setting [3]).
Take `Cc1c(N2CCc3cnc(Nc4ccc(CS(C)(=O)=O)nc4)nc3C2)cnc2c1NCCO2` [Example 58, 6-(methanesulfonylmethyl)-N-(7-{8-methyl-1H,2H,3H-pyrido[2,3-b][1,4]oxazin-7-yl}-5H,6H,7H,8H-pyrido[3,4-d]pyrimidin-2-yl)pyridin-3-amine]: the IC50 in test [1] was below 100 nM; in test [2] (setting [3]), below 500 nM.
The like results for `Cc1c(N2Cc3nc(Nc4ccc(CS(C)(=O)=O)cc4)ncc3C(F)(F)C2)cnc2c1NCCO2` [Example 152, 5,5-difluoro-N-[4-(methanesulfonylmethyl)phenyl]-7-{8-methyl-1H,2H,3H-pyrido[2,3-b][1,4]oxazin-7-yl}-5H,6H,7H,8H-pyrido[3,4-d]pyrimidin-2-amine] were, in that order, below 100 nM and below 500 nM.
Take `Cc1c(N2CCc3cnc(Nc4cccc(CS(C)(=N)=O)c4)nc3C2)cnc2c1NCCO2` (centres unmarked) [Example 168, imino(methyl)(3-((7-(8-methyl-2,3-dihydro-1H-pyrido[2,3-b][1,4]oxazin-7-yl)-5,6,7,8-tetrahydropyrido[3,4-d]pyrimidin-2-yl)amino)benzyl)-16-sulfanone]: the half-inhibitory concentration (IC50) was below 100 nM in test [1] and below 500 nM in test [2] (setting [3]).
Regarding `Cc1c(N2CCc3cnc(Nc4ccc(CN(C)C)cc4)nc3C2)cnc2c1NCCO2` [Example 59, N-{4-[(dimethylamino)methyl]phenyl}-7-{8-methyl-1H,2H,3H-pyrido[2,3-b][1,4]oxazin-7-yl}-5H,6H,7H,8H-pyrido[3,4-d]pyrimidin-2-amine; formic acid], the 50% inhibitory concentration (IC50) in test [1] was below 100 nM; in test [2] (setting [3]), above 1000 nM.
Regarding `Cc1c(N2CCc3cnc(Nc4ccc(C(C)(C)S(C)(=O)=O)nc4)nc3C2)cnc2c1NCCO2` [Example 20, 6-(2-methanesulfonylpropan-2-yl)-N-(7-{8-methyl-1H,2H,3H-pyrido[2,3-b][1,4]oxazin-7-yl}-5H,6H,7H,8H-pyrido[3,4-d]pyrimidin-2-yl)pyridin-3-amine], the IC50 is below 100 nM in test [1] and above 1000 nM in test [2] (setting [3]).
The like results for `Cc1c(N2CCc3cnc(Nc4ccc(CS(C)(=O)=O)cc4)nc3C2)cnc2c1NCCO2` [Example 69, N-[4-(methanesulfonylmethyl)phenyl]-7-{8-methyl-1H,2H,3H-pyrido[2,3-b][1,4]oxazin-7-yl}-5H,6H,7H,8H-pyrido[3,4-d]pyrimidin-2-amine] were, in that order, below 100 nM and below 500 nM.
